Assay results as given in PubChem BioAssay (NCI).
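1) Cells in 96-well plates. 2) Compound, 48 h, 5 concentrations. 3) Linear interpolation between surrounding doses. 4) Unreached endpoint = highest concentration. Abbreviation: GI50, concentration required for 50% inhibition of growth. At the TGI there is no net growth.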

Columns and labels:
Experiment in all cases: NCI tumour cell line growth inhibition, 48 h
K-562 leukemia = tested on: K-562 leukemia
HCT-15 colon = tested on: HCT-15 colon
NCI-H522 lung = tested on: NCI-H522 lung
SR leukemia = tested on: SR leukemia
SNB-75 CNS = tested on: SNB-75 CNS
U251 CNS = tested on: U251 CNS
SN12C renal = tested on: SN12C renal
NCI-H23 lung = tested on: NCI-H23 lung
ACHN renal = tested on: ACHN renal
OVCAR-5 ovarian = tested on: OVCAR-5 ovarian
PC-3 prostate = tested on: PC-3 prostate
SK-MEL-5 melanoma = tested on: SK-MEL-5 melanoma
OVCAR-8 ovarian = tested on: OVCAR-8 ovarian
CAKI-1 renal = tested on: CAKI-1 renal
HS 578T breast = tested on: HS 578T breast
MDA-MB-231 breast = tested on: MDA-MB-231 breast
CCRF-CEM leukemia = tested on: CCRF-CEM leukemia
RPMI-8226 leukemia = tested on: RPMI-8226 leukemia
DU-145 prostate = tested on: DU-145 prostate
SK-OV-3 ovarian = tested on: SK-OV-3 ovarian
SF-295 CNS = tested on: SF-295 CNS
HCT-116 colon = tested on: HCT-116 colon
UACC-62 melanoma = tested on: UACC-62 melanoma
NCI/ADR-RES ovarian = tested on: NCI/ADR-RES ovarian
HCC-2998 colon = tested on: HCC-2998 colon
MALME-3M melanoma = tested on: MALME-3M melanoma
UACC-257 melanoma = tested on: UACC-257 melanoma
TK-10 renal = tested on: TK-10 renal
HL-60(TB) leukemia = tested on: HL-60(TB) leukemia
T-47D breast = tested on: T-47D breast
LOX IMVI melanoma = tested on: LOX IMVI melanoma
SF-268 CNS = tested on: SF-268 CNS
OVCAR-3 ovarian = tested on: OVCAR-3 ovarian
HOP-92 NSCLC = tested on: HOP-92 NSCLC
EKVX NSCLC = tested on: EKVX NSCLC
SF-539 CNS = tested on: SF-539 CNS
HT29 colon = tested on: HT29 colon
SK-MEL-28 melanoma = tested on: SK-MEL-28 melanoma
RXF 393 renal = tested on: RXF 393 renal
BT-549 breast = tested on: BT-549 breast
NCI-H460 lung = tested on: NCI-H460 lung
KM12 colon = tested on: KM12 colon
HOP-62 NSCLC = tested on: HOP-62 NSCLC
M14 melanoma = tested on: M14 melanoma
SK-MEL-2 melanoma = tested on: SK-MEL-2 melanoma
A498 renal = tested on: A498 renal
MOLT-4 leukemia = tested on: MOLT-4 leukemia
MCF7 breast = tested on: MCF7 breast
786-0 renal = tested on: 786-0 renal
UO-31 renal = tested on: UO-31 renal
SW-620 colon = tested on: SW-620 colon
OVCAR-4 ovarian = tested on: OVCAR-4 ovarian
IGROV1 ovarian = tested on: IGROV1 ovarian
A549 NSCLC = tested on: A549 NSCLC
COLO 205 colon = tested on: COLO 205 colon
SNB-19 CNS = tested on: SNB-19 CNS
NCI-H226 lung = tested on: NCI-H226 lung
MDA-MB-435 = tested on: MDA-MB-435

## CCN1C(=O)N(CC)C2C1N=C(SC)N2/N=C/C=C/c1ccccc1OC (stereo not drawn)
K-562 leukemia
  GI50: 0.361 µM
  TGI: > 42.8 µM
HCT-15 colon
  GI50: 0.37 µM
  TGI: > 35.7 µM
NCI-H522 lung
  GI50: 0.308 µM
SR leukemia
  GI50: 0.358 µM
  TGI: 13.2 µM
SNB-75 CNS
  GI50: 0.363 µM
  TGI: 52.5 µM
U251 CNS
  GI50: 0.411 µM
  TGI: > 33.1 µM
SN12C renal
  GI50: 0.512 µM
  TGI: > 43.5 µM
NCI-H23 lung
  GI50: 0.51 µM
  TGI: > 38.8 µM
ACHN renal
  GI50: 0.724 µM
  TGI: > 49.3 µM
OVCAR-5 ovarian
  GI50: 0.63 µM
  TGI: > 54.4 µM
PC-3 prostate
  GI50: 0.47 µM
  TGI: > 45.3 µM
SK-MEL-5 melanoma
  GI50: 0.365 µM
  TGI: 1.51 µM
OVCAR-8 ovarian
  GI50: 0.438 µM
  TGI: > 45 µM
CAKI-1 renal
  GI50: 0.572 µM
  TGI: > 58.3 µM
HS 578T breast
  GI50: 0.422 µM
  TGI: > 56.4 µM
MDA-MB-231 breast
  GI50: 0.348 µM
  TGI: 10.8 µM
CCRF-CEM leukemia
  GI50: 0.379 µM
  TGI: > 48.2 µM
RPMI-8226 leukemia
  GI50: 0.37 µM
  TGI: 3.31 µM
DU-145 prostate
  GI50: 0.428 µM
  TGI: > 45.3 µM
SK-OV-3 ovarian
  GI50: 0.743 µM
  TGI: > 59.5 µM
SF-295 CNS
  GI50: 0.358 µM
  TGI: > 37.4 µM
HCT-116 colon
  GI50: 0.375 µM
  TGI: 24.8 µM
UACC-62 melanoma
  GI50: 0.492 µM
  TGI: > 40.4 µM
NCI/ADR-RES ovarian
  GI50: 0.329 µM
HCC-2998 colon
  GI50: 0.413 µM
  TGI: > 41.1 µM
MALME-3M melanoma
  GI50: 1.01 µM
  TGI: > 42.8 µM
UACC-257 melanoma
  GI50: > 32.9 µM
  TGI: > 58 µM
TK-10 renal
  GI50: 1.09 µM
  TGI: > 58.7 µM
HL-60(TB) leukemia
  GI50: 0.289 µM
  TGI: 1.09 µM
T-47D breast
  GI50: > 32.8 µM
  TGI: > 58.8 µM
LOX IMVI melanoma
  GI50: 0.564 µM
  TGI: > 36.7 µM
SF-268 CNS
  GI50: 0.877 µM
  TGI: > 57.7 µM
OVCAR-3 ovarian
  GI50: 0.375 µM
  TGI: > 54.2 µM
HOP-92 NSCLC
  GI50: 0.428 µM
  TGI: 7.31 µM
EKVX NSCLC
  GI50: 0.581 µM
  TGI: > 56.6 µM
SF-539 CNS
  GI50: 0.315 µM
  TGI: 1.69 µM
HT29 colon
  GI50: 0.357 µM
SK-MEL-28 melanoma
  GI50: > 32.1 µM
  TGI: > 50.3 µM
RXF 393 renal
  GI50: 0.376 µM
  TGI: 35.3 µM
BT-549 breast
  GI50: 0.479 µM
  TGI: 19.6 µM
NCI-H460 lung
  GI50: 0.341 µM
  TGI: > 34.3 µM
KM12 colon
  GI50: 0.404 µM
  TGI: > 39.6 µM
HOP-62 NSCLC
  GI50: 0.55 µM
  TGI: > 45 µM
M14 melanoma
  GI50: 0.33 µM
  TGI: > 37.4 µM
SK-MEL-2 melanoma
  GI50: 1.2 µM
  TGI: > 39.3 µM
A498 renal
  GI50: 0.285 µM
  TGI: 1.9 µM
MOLT-4 leukemia
  GI50: 0.457 µM
  TGI: > 46.1 µM
MCF7 breast
  GI50: 0.421 µM
  TGI: > 39.4 µM
786-0 renal
  GI50: 0.538 µM
  TGI: 31.7 µM
UO-31 renal
  GI50: 0.821 µM
  TGI: > 47.3 µM
SW-620 colon
  GI50: 0.412 µM
  TGI: > 100 µM
OVCAR-4 ovarian
  GI50: 1.55 µM
  TGI: > 81.5 µM
IGROV1 ovarian
  GI50: 0.618 µM
  TGI: > 45.1 µM
A549 NSCLC
  GI50: 0.469 µM
  TGI: > 47.8 µM
COLO 205 colon
  GI50: 0.324 µM
SNB-19 CNS
  GI50: 0.492 µM
  TGI: > 39 µM
NCI-H226 lung
  GI50: 2.14 µM
  TGI: > 52.3 µM

## Cc1cc(C)c2c(n1)S(=O)(=O)N(CCCN1CCN(c3cccc(Cl)c3)CC1)/C(=C(\O)c1ccc(Br)cc1)C2=O
K-562 leukemia
  TGI: > 100 µM
HCT-15 colon
  TGI: > 100 µM
NCI-H522 lung
  TGI: > 100 µM
SR leukemia
  TGI: > 100 µM
SNB-75 CNS
  TGI: 28.3 µM
U251 CNS
  TGI: > 100 µM
SN12C renal
  TGI: 53.2 µM
NCI-H23 lung
  TGI: > 100 µM
ACHN renal
  TGI: > 100 µM
OVCAR-5 ovarian
  TGI: > 100 µM
PC-3 prostate
  TGI: > 100 µM
SK-MEL-5 melanoma
  TGI: 39.7 µM
OVCAR-8 ovarian
  TGI: > 100 µM
CAKI-1 renal
  TGI: 49.4 µM
HS 578T breast
  TGI: > 100 µM
MDA-MB-435
  TGI: 78.8 µM
MDA-MB-231 breast
  TGI: > 100 µM
CCRF-CEM leukemia
  TGI: > 100 µM
DU-145 prostate
  TGI: > 100 µM
SK-OV-3 ovarian
  TGI: > 100 µM
SF-295 CNS
  TGI: 86 µM
HCT-116 colon
  TGI: 52 µM
UACC-62 melanoma
  TGI: > 100 µM
NCI/ADR-RES ovarian
  TGI: > 100 µM
MALME-3M melanoma
  TGI: > 100 µM
UACC-257 melanoma
  TGI: 45.3 µM
TK-10 renal
  TGI: 60.8 µM
HL-60(TB) leukemia
  TGI: 45.4 µM
T-47D breast
  TGI: > 100 µM
LOX IMVI melanoma
  TGI: > 100 µM
SF-268 CNS
  TGI: > 100 µM
OVCAR-3 ovarian
  TGI: 94.7 µM
HOP-92 NSCLC
  TGI: 59.6 µM
EKVX NSCLC
  TGI: 57 µM
SF-539 CNS
  TGI: 95.6 µM
HT29 colon
  TGI: 98.8 µM
SK-MEL-28 melanoma
  TGI: > 100 µM
RXF 393 renal
  TGI: 83.7 µM
BT-549 breast
  TGI: > 100 µM
NCI-H460 lung
  TGI: 33.2 µM
KM12 colon
  TGI: > 100 µM
HOP-62 NSCLC
  TGI: > 100 µM
M14 melanoma
  TGI: > 100 µM
SK-MEL-2 melanoma
  TGI: 69.4 µM
A498 renal
  TGI: > 100 µM
MOLT-4 leukemia
  TGI: 60.2 µM
MCF7 breast
  TGI: > 100 µM
786-0 renal
  TGI: 38.2 µM
UO-31 renal
  TGI: 48.9 µM
SW-620 colon
  TGI: > 100 µM
OVCAR-4 ovarian
  TGI: 55.8 µM
IGROV1 ovarian
  TGI: > 100 µM
A549 NSCLC
  TGI: 71 µM
COLO 205 colon
  TGI: 29.8 µM
SNB-19 CNS
  TGI: 98.4 µM

## COc1ccc(C2=NNC(=O)c3ccccc3N2c2nc(-c3cccs3)nc3cc(OC)c(OC)cc23)cc1
K-562 leukemia
  TGI: > 100 µM
HCT-15 colon
  TGI: > 100 µM
NCI-H522 lung
  TGI: 88 µM
SR leukemia
  TGI: > 100 µM
SNB-75 CNS
  TGI: 14.1 µM
U251 CNS
  TGI: 33.3 µM
SN12C renal
  TGI: 11.1 µM
NCI-H23 lung
  TGI: > 100 µM
ACHN renal
  TGI: 13.3 µM
OVCAR-5 ovarian
  TGI: > 100 µM
PC-3 prostate
  TGI: > 100 µM
SK-MEL-5 melanoma
  TGI: 17.3 µM
OVCAR-8 ovarian
  TGI: > 100 µM
CAKI-1 renal
  TGI: 44.7 µM
HS 578T breast
  TGI: 27.5 µM
MDA-MB-435
  TGI: 13.6 µM
MDA-MB-231 breast
  TGI: 13.5 µM
RPMI-8226 leukemia
  TGI: > 100 µM
DU-145 prostate
  TGI: > 100 µM
SK-OV-3 ovarian
  TGI: > 100 µM
SF-295 CNS
  TGI: 9.9 µM
HCT-116 colon
  TGI: > 100 µM
UACC-62 melanoma
  TGI: 5.79 µM
NCI/ADR-RES ovarian
  TGI: > 100 µM
HCC-2998 colon
  TGI: 7.21 µM
MALME-3M melanoma
  TGI: 6.92 µM
UACC-257 melanoma
  TGI: 88.2 µM
TK-10 renal
  TGI: 21 µM
T-47D breast
  TGI: 17.6 µM
SF-268 CNS
  TGI: > 100 µM
OVCAR-3 ovarian
  TGI: 9.24 µM
HOP-92 NSCLC
  TGI: 7.97 µM
EKVX NSCLC
  TGI: > 100 µM
SF-539 CNS
  TGI: 8.56 µM
SK-MEL-28 melanoma
  TGI: 5 µM
BT-549 breast
  TGI: 6.63 µM
NCI-H460 lung
  TGI: > 100 µM
KM12 colon
  TGI: > 100 µM
HOP-62 NSCLC
  TGI: 17 µM
M14 melanoma
  TGI: 20.2 µM
SK-MEL-2 melanoma
  TGI: 44.2 µM
A498 renal
  TGI: 10.5 µM
MOLT-4 leukemia
  TGI: > 100 µM
MCF7 breast
  TGI: 9 µM
786-0 renal
  TGI: 12.1 µM
UO-31 renal
  TGI: 25 µM
SW-620 colon
  TGI: > 100 µM
OVCAR-4 ovarian
  TGI: 4.49 µM
IGROV1 ovarian
  TGI: > 100 µM
A549 NSCLC
  TGI: > 100 µM
COLO 205 colon
  TGI: > 100 µM
SNB-19 CNS
  TGI: > 100 µM
NCI-H226 lung
  TGI: 20.6 µM
